Results as given in publication PMC6668024 (Journal of medicinal chemistry, 2018).

Tests used:
[1] = target: T1, Topo I (Homo sapiens, UniProt P11387); assay: Topo I inhibitory activity assay; format: biochemical
T1 sequence (P11387 1-765): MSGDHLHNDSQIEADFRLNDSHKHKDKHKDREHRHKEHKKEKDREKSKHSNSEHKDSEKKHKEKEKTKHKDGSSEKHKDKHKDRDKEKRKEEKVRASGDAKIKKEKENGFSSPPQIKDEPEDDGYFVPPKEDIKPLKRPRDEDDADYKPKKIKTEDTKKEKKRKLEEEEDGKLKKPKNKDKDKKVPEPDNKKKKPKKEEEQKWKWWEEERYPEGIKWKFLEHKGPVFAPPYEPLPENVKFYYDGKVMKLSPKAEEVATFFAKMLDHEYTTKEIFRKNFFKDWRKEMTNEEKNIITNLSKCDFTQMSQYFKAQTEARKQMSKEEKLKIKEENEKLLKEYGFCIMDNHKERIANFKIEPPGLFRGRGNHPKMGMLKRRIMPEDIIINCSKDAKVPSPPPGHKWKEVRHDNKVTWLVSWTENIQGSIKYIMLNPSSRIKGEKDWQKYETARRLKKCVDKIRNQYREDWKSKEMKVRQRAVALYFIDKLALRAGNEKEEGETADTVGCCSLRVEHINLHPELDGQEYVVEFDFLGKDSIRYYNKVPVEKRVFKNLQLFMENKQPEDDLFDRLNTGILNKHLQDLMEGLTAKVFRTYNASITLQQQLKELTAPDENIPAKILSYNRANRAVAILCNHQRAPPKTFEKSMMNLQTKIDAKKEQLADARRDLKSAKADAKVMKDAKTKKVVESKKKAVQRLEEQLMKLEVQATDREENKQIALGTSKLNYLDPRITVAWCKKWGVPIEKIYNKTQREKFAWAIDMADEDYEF

[2] = target: T2, Topo I-DNA cleavage complex (Homo sapiens, UniProt P11387); assay: Topo I-mediated DNA cleavage assay; format: biochemical; conditions: EB-containing gel; for Topo I-mediated DNA cleavage (amount of nicked DNA): 100 μM or 50 μM
T2 sequence (P11387 1-765): T1 sequence (P11387 1-765)

[3] = tested on: IL-6; assay: IL-6 in serum, LPS sepsis model; format: in vivo, C57BL/6 mice; conditions: serum 72 h after LPS
[4] = tested on: TNF-α; assay: TNF-α in serum, LPS sepsis model; format: in vivo, C57BL/6 mice; conditions: serum 72 h after LPS
[5] = In vivo pharmacokinetics, plasma levels by LC-MS/MS; set-up: species or system male C57BL/6 mice; conditions: for parent compound (4 or 3) in plasma after i.v. dosing of the ester: 2 mg/kg intravenously
[6] = for body weight of treated mice: HepG-2 xenograft mice, treatment for 30 days, doses as in Figure 5
[7] = tested on: A549; assay: MTT cytotoxicity assay, A549; format: cell-based, human; conditions: 48 h
[8] = tested on: MCF-7; assay: MTT cytotoxicity assay, MCF-7; format: cell-based, human; conditions: MCF-7, MTT, 48 h
[9] = tested on: MDA-MB-231; assay: MTT cytotoxicity assay, MDA-MB-231; format: cell-based, human; conditions: MDA-MB-231, MTT, 48 h
[10] = tested on: HepG-2; assay: MTT cytotoxicity assay, HepG-2; format: cell-based, human; conditions: HepG-2, MTT, 48 h
[11] = tested on: KB; assay: MTT cytotoxicity assay, KB; format: cell-based, human; conditions: 48 h
[12] = tested on: BEL-7402; assay: MTT cytotoxicity assay, BEL-7402; format: cell-based, human; conditions: BEL-7402, MTT, 48 h
[13] = tested on: SMMC-7721; assay: MTT cytotoxicity assay, SMMC-7721; format: cell-based, human; conditions: SMMC-7721, MTT, 48 h
[14] = tested on: MGC80-3; assay: MTT cytotoxicity assay, MGC80-3; format: cell-based, human; conditions: MGC80-3, MTT, 48 h
[15] = tested on: SK-N-SH; assay: MTT cytotoxicity assay, SK-N-SH; format: cell-based, human; conditions: 48 h
[16] = tested on: QGY-7703; assay: MTT cytotoxicity assay, QGY-7703; format: cell-based, human; conditions: QGY-7703, MTT, 48 h
[17] = tested on: SGC-7901; assay: MTT cytotoxicity assay, SGC-7901; format: cell-based, human; conditions: SGC-7901, MTT, 48 h
[18] = Aqueous solubility; conditions: parental compounds
[19] = physchem
[20] = 50 μM and 100 μM, EB-free gel (Figure 3a, 3b)

With `CC[C@@]1(OC(=O)CNC(=O)CCC(=O)O)C(=O)OCc2c1cc1n(c2=O)Cc2cc3c(ccc4oc(C(C)C)nc43)nc2-1` [Compound 9, (S)-4-((2-((8-Ethyl-2-isopropyl-9,12-dioxo-9,11,12,14-tetrahydro-8H-oxazolo[4,5-f]pyrano[3',4':6,7]indolizno[1,2-b]quinolin-8-yl)oxy)-2-oxoethyl)amino)-4-oxobutanoic acid] the “Topo I inhibitory activity” value [1, 20] was “weak inhibition”, the “Topo I-mediated DNA cleavage (amount of nicked DNA)” value [2] was “can increase the amount of nicked DNA” and the “expression of IL-6 in mouse serum” value [3] was “suppressed”. The “expression of TNF-α in mouse serum” value [4] was “suppressed”, the “parent compound (4 or 3) in plasma after i.v. dosing of the ester” value ([5]; mice) was “not detected” and the “concentration in plasma through oral administration” value ([5]; single oral administration, mice) was “extremely low”. For the same compound, the “body weight of treated mice” value [6] was “no major influence on body weight” and the “survival of xenograft mice on oral dosing” value ([6]; daily oral dose 5 mg/kg) was “most mice failed to reach the end point”.
For `CC[C@@]1(O)C(=O)OCc2c1cc1n(c2=O)Cc2cc3ccccc3nc2-1` [CPT, Camptothecin, reference compound], the “Topo I inhibitory activity” value [1, 20] was “can inhibit Topo I activity” and the “Topo I-mediated DNA cleavage (amount of nicked DNA)” value [2] was “can increase the amount of nicked DNA”.
For `CC[C@@]1(OC(=O)CNC(=O)CCC(=O)O)C(=O)OCc2c1cc1n(c2=O)Cc2cc3c4c(ccc3nc2-1)OC(C(C)C)NC4=O` (stereo partly drawn) [Compound 11, 4-((2-(((9S)-9-Ethyl-3-isopropyl-1,10,13-trioxo-1,2,3,9,10,12,13,15-octahydro-[1,3]oxazino[5,6-f]pyrano[3',4':6,7]indolizino[1,2-b]quinolin-9-yl)oxy)-2-oxoethyl)amino)-4-oxobutanoic acid], the “Topo I inhibitory activity” value [1, 20] was “almost inactive”, the “Topo I-mediated DNA cleavage (stabilization of cleavage complex)” value ([2]; 50 μM) was “failed to stabilize Topo I-DNA cleavage complex” and the “expression of IL-6 in mouse serum” value [3] was “suppressed”. The “expression of TNF-α in mouse serum” value [4] was “suppressed”, the “parent compound (4 or 3) in plasma after i.v. dosing of the ester” value ([5]; mice) was “very low concentration” and the “concentration in plasma through oral administration” value ([5]; mouse, in vivo, po) was “extremely low”. For the same compound, the “body weight of treated mice” value [6] was “no major influence on body weight” and the “side effects, pathological anatomy of viscera” value ([6]; oral administration compared with the i.v. dosage) was “increases the occurrence of gastrointestinal flatulence”.
Work on “(9S)-9-Ethyl-9-hydroxy-3-isopropyl-2,3-dihydro-[1,3]oxazino[5,6-f]pyrano[3',4':6,7]indolizino[1,2-b]quinoline-1,10,13(9H,12H,15H)-trione [Compound 3]” yielded an IC50 [7] of 2170 nM, an IC50 [8] of 10.8 µM and an IC50 [9] of 1320 nM. The IC50 [10] was 1110 nM, the IC50 [11] was 9.76 µM and the IC50 [12] was > 10 µM. For the same compound, the IC50 [13] was > 10 µM, the IC50 [14] was 390 nM and the IC50 [15] was 325 nM. The IC50 [16] was > 10 µM, the IC50 [17] was > 10 µM and the “Topo I inhibitory activity” value ([1]; 50 μM, EB-free gel (Figure 4)) was “high”. For the same compound, the aqueous solubility [18] was < 2 µg/mL.
With `CC[C@@]1(O)C(=O)OCc2c1cc1n(c2=O)Cc2cc3c(ccc4oc(C(C)C)nc43)nc2-1` [Compound 4, (S)-8-Ethyl-8-hydroxy-2-isopropyl-8H-oxazolo[4,5-f]pyrano[3',4':6,7]indolizino[1,2-b]quinoline-9,12(11H,14H)-dione] the “Topo I inhibitory activity” value ([1]; 50 μM, EB-free gel (Figure 4)) was “weak inhibitor” and the solubility [19] was < 2 µg/mL.
For `CC[C@@]1(O)C(=O)OCc2c1cc1n(c2=O)Cc2cc3c(CN(C)C)c(O)ccc3nc2-1` [Topotecan, reference compound], the “Topo I-mediated DNA cleavage (amount of nicked DNA)” value [2] was “can increase the amount of nicked DNA”.
